# Source: publication PMC6368365, “Didehydro-Cortistatin A Inhibits HIV-1 by Specifically Binding to the Unstructured Basic Region of Tat” (mBio, 2019)
# Experiments:
# [1] = design: method as in PMID 22817991, PMID 29045830, PMID 25613133; conditions: cited from earlier work
# FLAG-Tat = target: T1, FLAG-Tat (Human immunodeficiency virus type 1 group M subtype B, UniProt P69697); experiment: Confocal immunofluorescence of FLAG-Tat subcellular localization; assay type: cell-based, HIV-1; conditions: 100 nM dCA, HeLa-CD4-LTR-Luc cells
# T1 construct: expressed in transfected cells; host or cells: HeLa-CD4-LTR-Luc
# From the text: (§1) If dCA were to bind the basic domain of Tat in its disordered form, then one would predict it might also bind to other basic peptide sequences and block their functions. The two well-known proteins that share a similar basic domain with Tat are HIV-1 Rev protein and the cellular protein Hexim-1 (Fig. 3A). As such, we investigated whether dCA could inhibit these similar basic domain functions. The basic domain of Rev is responsible for its nuclear localization ([31]); therefore, we assessed whether dCA could impact the subcellular localization of Rev (Fig. 3B) as previously shown for Tat ([10]). We transfected HeLa-CD4-LTR-Luc cells with a plasmid expressing FLAG-tagged Rev and assessed Rev localization in the presence of 100 nM dCA. […] Twenty-four hours later, cells were collected, and total, nuclear, and cytoplasmic mRNAs were extracted, reverse transcribed, and quantified by quantitative real-time PCR (qRT-PCR).
# (§2) (A) Sequence of the basic domains of HIV Tat HXB3, HIV Rev Bru and intracellular Hexim-1. […] (C) Quantification of the nucleolar fluorescence of panel B using ImageJ. […] Total, nuclear, and cytoplasmic mRNAs were extracted, and viral messages were determined by qRT-PCR. […] (G) Quantification of nuclear fluorescence of panel F using ImageJ. […] Statistical significance was determined using one-way ANOVA with post hoc Tukey’s test. ns, not significant; ***, P < 0.0001; **, P < 0.001. […]
# FLAG-tagged Rev = target: T2, FLAG-tagged Rev (Human immunodeficiency virus type 1 group M subtype B, UniProt P04618); experiment: Confocal immunofluorescence of FLAG-Rev subcellular localization; assay type: cell-based, HIV-1; conditions: 100 nM dCA, HeLa-CD4-LTR-Luc cells
# T2 construct: expressed in transfected cells; host or cells: HeLa-CD4-LTR-Luc
# From the text: as §1, §2
# T2 sequence (P04618 whole entry, looked up): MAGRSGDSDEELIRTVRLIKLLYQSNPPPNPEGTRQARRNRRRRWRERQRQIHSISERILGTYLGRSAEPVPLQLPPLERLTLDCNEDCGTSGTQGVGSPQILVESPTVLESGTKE
# T1 sequence (P69697 whole entry): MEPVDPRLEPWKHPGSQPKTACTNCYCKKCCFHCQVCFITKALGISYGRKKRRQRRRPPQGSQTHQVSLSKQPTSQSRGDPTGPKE
smiles,measurement,setting,value
"CN(C)C1CC23CCC4(O2)C(=CCC2(C)C(c5ccc6ccncc6c5)=CCC24)C=C3C(O)C1O (stereo not drawn) [dCA, didehydro-cortistatin A]",solubility in water,[1],very soluble in water
same,subcellular localization of Tat,FLAG-Tat,significant redistribution of Tat to the periphery of the nucleolus
same,subcellular localization of Rev,FLAG-tagged Rev,localization of Rev was left unchanged
